Source: patent US12391683B2, “Therapeutic compounds and methods” (Actio Biosciences, Inc., priority 2022, dated 2025)

Target: T1, TRPV6 channels (Homo sapiens, UniProt Q9H1D0)
T1 construct: expressed in transfected cells; host or cells: HEK293
T1 sequence (Q9H1D0 1-765): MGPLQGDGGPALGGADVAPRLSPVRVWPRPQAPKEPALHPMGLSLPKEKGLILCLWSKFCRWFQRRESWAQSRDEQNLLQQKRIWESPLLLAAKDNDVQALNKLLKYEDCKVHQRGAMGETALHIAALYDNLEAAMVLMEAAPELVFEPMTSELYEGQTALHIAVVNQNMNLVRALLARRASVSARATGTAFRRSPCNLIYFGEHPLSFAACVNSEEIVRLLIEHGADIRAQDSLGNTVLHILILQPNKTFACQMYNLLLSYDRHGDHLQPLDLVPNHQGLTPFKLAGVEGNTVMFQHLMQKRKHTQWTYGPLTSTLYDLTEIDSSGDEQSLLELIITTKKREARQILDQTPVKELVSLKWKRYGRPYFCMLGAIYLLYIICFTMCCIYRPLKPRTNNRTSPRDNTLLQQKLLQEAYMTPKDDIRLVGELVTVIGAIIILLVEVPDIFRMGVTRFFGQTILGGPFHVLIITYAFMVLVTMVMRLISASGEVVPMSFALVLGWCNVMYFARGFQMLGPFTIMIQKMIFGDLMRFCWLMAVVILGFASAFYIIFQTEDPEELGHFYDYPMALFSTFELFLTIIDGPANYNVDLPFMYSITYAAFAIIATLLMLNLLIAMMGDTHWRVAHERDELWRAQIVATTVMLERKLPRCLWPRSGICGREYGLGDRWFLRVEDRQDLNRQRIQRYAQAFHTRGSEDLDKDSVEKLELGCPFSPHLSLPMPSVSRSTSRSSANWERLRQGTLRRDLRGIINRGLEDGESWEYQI
Test: TRP Family FLIPR Assay, TRPV6
Assay type: cell-based
Conditions: antagonist mode; activated with 0.9 mM calcium ion; HEK293 cells; 0.003-10 μM; read-out: IC50 hTRPV6
Protocol: The compound of Example 5 was tested for selectivity against a panel of Human TRP family ion channels in a TRP Family FLIPR Assay as described below. • 1. TRPC3 channels (human TRPC3 variant 1 gene, expressed in HEK293 cells). • 2. TRPC4 channels (human TRPC4 gene, expressed in HEK293 cells). • 3. TRPC5 channels (human TRPC5 gene, expressed in HEK293 cells). • 4. TRPC6 channels (human TRPC6 gene, expressed in HEK293 cells). • 5. TRPM2 channels (human TRPM2 gene, transiently expressed in HEK293 cells). • 6. TRPM3 channels (human TRPM3 gene, transiently expressed in HEK293 cells). • 7. TRPM4 channels (human TRPM4 gene, expressed in CHO cells). • 8. […]
Data acquisition was performed via the FLIPR Control software supplied with the FLIPR System (MDS-AT) and data was analyzed using Microsoft Excel (Microsoft Corp., Redmond, WA) or GraphPad Prism. […]
[formula] where Base is the response at low concentrations of test article, Max is the maximum response at high concentrations, xhalf the EC50, or IC50, the concentration of test article producing either half-maximal activation or inhibition, and rate is the Hill coefficient. […] No assumptions about the fit parameters was made; the fit parameters were determined by the algorithm.
The effect of each test article was evaluated at eight (8) concentrations: 0.003, 0.01, 0.03, 0.1, 0.3, 1, 3 and 10 μM, n≤4 wells/concentration). […]

## CC(C)(O)c1cnc(N2C[C@@]3(CC[C@@H](F)[C@](C)(Cn4cnc5ccc(C#N)cc54)C3)OC2=O)cn1 (single isomer, unassigned) [Example 5]
  IC50: > 10 µM
